Measurements from patent US10543212B2, “Substituted amines for treating cardiac diseases” (Cardurion Pharmaceuticals, LLC, priority 2017, dated 2020).

Each molecule was assayed against T1, Full-length, GST-tagged, human CaMKIIδ (Homo sapiens, UniProt Q13557) (assay: CaMKIIδ binding assay (TR-FRET with BODIPY-labeled probe ligand)). Conditions: CaMKIIδ binding assay, results of Table 2.
T1 construct: Full-Length, Glutathione-S-Transferase(GST)-Tagged, Human CaMKIIδ was purchased from Carna Biosciences; purchased Carna Biosciences 02-111
T1 sequence (Q13557 1-478 isoform Q13557-12): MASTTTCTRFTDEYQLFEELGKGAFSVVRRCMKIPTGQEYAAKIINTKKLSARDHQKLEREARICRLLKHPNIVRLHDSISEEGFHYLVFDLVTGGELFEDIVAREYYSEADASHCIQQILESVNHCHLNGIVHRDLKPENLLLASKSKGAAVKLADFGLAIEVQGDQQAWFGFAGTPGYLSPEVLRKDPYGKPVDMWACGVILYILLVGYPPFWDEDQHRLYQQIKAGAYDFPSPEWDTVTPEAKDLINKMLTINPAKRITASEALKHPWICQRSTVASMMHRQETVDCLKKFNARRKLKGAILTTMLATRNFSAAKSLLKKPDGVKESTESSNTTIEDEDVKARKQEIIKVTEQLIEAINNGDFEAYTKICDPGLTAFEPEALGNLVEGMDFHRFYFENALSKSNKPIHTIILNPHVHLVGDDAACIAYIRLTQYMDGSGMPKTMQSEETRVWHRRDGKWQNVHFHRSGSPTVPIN
How it was run: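 TR-FRET probe-displacement binding: 0.5 nM GST-CaMKIIδ with 10 μg/mL calmodulin, 1 mM CaCl2, 0.21 nM Tb-anti-GST Ab and 300 nM BODIPY probe in HEPES pH 7.6 buffer. Eight-point 4-fold dilutions, 1 hr at room temperature. IC50 from logistic fit; 100% inhibition defined by 3 μM parent compound.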
Work on COc1cc2c(cc1Nc1ncc(-c3ccc(Cl)c(O[C@@H](C)Cn4cnnn4)c3)cn1)C(=O)N(CCN(C)C)C2 [Example 512, (S)-6-((5-(3-((1-(1H-tetrazol-1-yl)propan-2-yl)oxy)-4-chlorophenyl)pyrimidin-2-yl)amino)-2-(2-(dimethylamino)ethyl)-5-methoxyisoindolin-1-one] yielded an IC50 of 10 to 100 nM. C[C@@H](Cn1cnnn1)Oc1cc(-c2cnc(Nc3cc4c(cc3Cl)CCN(C3COC3)CC4)nc2)ccc1Cl [Example 513, (S)-N-(5-(3-((1-(1H-tetrazol-1-yl)propan-2-yl)oxy)-4-chlorophenyl)pyrimidin-2-yl)-8-chloro-3-(oxetan-3-yl)-2,3,4,5-tetrahydro-1H-benzo[d]azepin-7-amine] was tested, and the IC50 was under 10 nM. C[C@@H](Cn1cnnn1)Oc1cc(-c2cnc(Nc3cn(C4CCN(Cc5cc[nH]n5)CC4)nc3C(F)(F)F)nc2)ccc1Cl [Example 561, (S)-N-(1-(1-((1H-pyrazol-3-yl)methyl)piperidin-4-yl)-3-(trifluoromethyl)-1H-pyrazol-4-yl)-5-(3-((1-(1H-tetrazol-1-yl)propan-2-yl)oxy)-4-chlorophenyl)pyrimidin-2-amine] gave an IC50 of under 10 nM. In the case of COc1cc2c(cc1Nc1ncc(-c3ccc(Cl)c(O[C@@H](C)Cn4cnnn4)c3)cn1)N(C(=O)CN(C)C)CC2 [Example 497, (S)-1-(6-((5-(3-((1-(1H-tetrazol-1-yl)propan-2-yl)oxy)-4-chlorophenyl)pyrimidin-2-yl)amino)-5-methoxyindolin-1-yl)-2-(dimethylamino)ethan-1-one], the IC50 is reported as under 10 nM. COc1cc2c(cc1Nc1ncc(-c3ccc(Cl)c(O[C@@H](C)Cn4cnnn4)c3)cn1)CCN(CC(F)(F)F)C2 [Example 490, (S)-N-(5-(3-((1-(1H-tetrazol-1-yl)propan-2-yl)oxy)-4-chlorophenyl)pyrimidin-2-yl)-7-methoxy-2-(2,2,2-trifluoroethyl)-1,2,3,4-tetrahydroisoquinolin-6-amine] was tested, and the IC50 was 10 to 100 nM. Cc1ncc(N2CC(O)C2)cc1Nc1ncc(-c2ccc(Cl)c(O[C@@H](C)Cn3cnnn3)c2)cn1 [Example 523, (S)-1-(5-((5-(3-((1-(1H-tetrazol-1-yl)propan-2-yl)oxy)-4-chlorophenyl)pyrimidin-2-yl)amino)-6-methylpyridin-3-yl)azetidin-3-ol] showed an IC50 of 10 to 100 nM. C[C@@H](Cn1cnnn1)Oc1cc(-c2cnc(Nc3cc(N4CCN(C5CCOCC5)CC4)ncc3OC(F)(F)F)nc2)ccc1Cl [Example 541, (S)-5-(3-((1-(1H-tetrazol-1-yl)propan-2-yl)oxy)-4-chlorophenyl)-N-(2-(4-(tetrahydro-2H-pyran-4-yl)piperazin-1-yl)-5-(trifluoromethoxy)pyridin-4-yl)pyrimidin-2-amine] showed an IC50 of under 10 nM. COc1cc2cc[nH]c2cc1Nc1ncc(-c2ccc(Cl)c(O[C@@H](C)Cn3cnnn3)c2)cn1 [Example 496, (S)-N-(5-(3-((1-(1H-tetrazol-1-yl)propan-2-yl)oxy)-4-chlorophenyl)pyrimidin-2-yl)-5-methoxy-1H-indol-6-amine] showed an IC50 of 10 to 100 nM. Molecule COc1cc2c(cc1Nc1ncc(-c3ccc(Cl)c(O[C@@H](C)Cn4cnnn4)c3)cn1)CCN(C(=O)CN(C)C)C2 [Example 459, (S)-1-(6-((5-(3-((1-(1H-tetrazol-1-yl)propan-2-yl)oxy)-4-chlorophenyl)pyrimidin-2-yl)amino)-7-methoxy-3,4-dihydroisoquinolin-2(1H)-yl)-2-(dimethylamino)ethan-1-one] has an IC50 of under 10 nM.

Same assay, conditions: CaMKIIδ binding assay; activity class per Table 2
Work on C[C@@H](Cn1cnnn1)Oc1cc(-c2cnc(Nc3cn(C4CC5(C4)CN(C4CCC4)C5)nc3OC3COC3)nc2)ccc1Cl [Example 945, (S)-5-(3-((1-(1H-tetrazol-1-yl)propan-2-yl)oxy)-4-chlorophenyl)-N-(1-(2-cyclobutyl-2-azaspiro[3.3]heptan-6-yl)-3-(oxetan-3-yloxy)-1H-pyrazol-4-yl)pyrimidin-2-amine] yielded an IC50 of under 10 nM. C[C@@H](Cn1cnnn1)Oc1cc(-c2cnc(Nc3cn(C4CC5(C4)CN(C(=O)OC(C)(C)C)C5)nc3C(F)(F)F)nc2)ccc1Cl [Example 919, tert-butyl (S)-6-(4-((5-(3-((1-(1H-tetrazol-1-yl)propan-2-yl)oxy)-4-chlorophenyl)pyrimidin-2-yl)amino)-3-(trifluoromethyl)-1H-pyrazol-1-yl)-2-azaspiro[3.3]heptane-2-carboxylate] gave an IC50 of at least 100 nM. With C[C@@H](COC(F)F)Oc1cc(-c2cnc(Nc3cn(C4CC5(C4)CN(C4CCOCC4)C5)nc3OCC(F)(F)F)nc2)ccc1C#N [Example 881, (S)-2-((1-(difluoromethoxy)propan-2-yl)oxy)-4-(2-((1-(2-(tetrahydro-2H-pyran-4-yl)-2-azaspiro[3.3]heptan-6-yl)-3-(2,2,2-trifluoroethoxy)-1H-pyrazol-4-yl)amino)pyrimidin-5-yl)benzonitrile] the IC50 was under 10 nM.

Same assay, conditions: Table 2; CaMKIIδ binding assay, activity given as class A/B/C
Work on C[C@@H](Cn1cccn1)Oc1cc(-c2cnc(Nc3cn([C@H]4CC[C@@H](N5CCOCC5)CC4)nc3C(F)(F)F)nc2)ccc1C#N [Example 785, 2-(((S)-1-(1H-pyrazol-1-yl)propan-2-yl)oxy)-4-(2-((1-(cis-4-morpholinocyclohexyl)-3-(trifluoromethyl)-1H-pyrazol-4-yl)amino)pyrimidin-5-yl)benzonitrile] yielded an IC50 of 10 to 100 nM. CC(C)N1CC2(CC(n3cc(Nc4ncc(-c5ccc(Cl)c(O[C@@H](C)Cn6cnnn6)c5)cn4)c(OCC(F)(F)F)n3)C2)C1 [Example 815, (S)-5-(3-((1-(1H-tetrazol-1-yl)propan-2-yl)oxy)-4-chlorophenyl)-N-(1-(2-isopropyl-2-azaspiro[3.3]heptan-6-yl)-3-(2,2,2-trifluoroethoxy)-1H-pyrazol-4-yl)pyrimidin-2-amine] showed an IC50 of under 10 nM. For C[C@@H](Cn1cc(F)cn1)Oc1cc(-c2cnc(Nc3cn([C@H]4CC[C@@H](N5CCOCC5)CC4)nc3OCC(F)(F)F)nc2)ccc1C#N [Example 829, 2-(((S)-1-(4-fluoro-1H-pyrazol-1-yl)propan-2-yl)oxy)-4-(2-((1-(cis-4-morpholinocyclohexyl)-3-(2,2,2-trifluoroethoxy)-1H-pyrazol-4-yl)amino)pyrimidin-5-yl)benzonitrile], the IC50 was 10 to 100 nM. Work on COCC(C)n1cc(Nc2ncc(-c3ccc(Cl)c(O[C@@H](C)Cn4cnnn4)c3)cn2)c(OCC(F)(F)F)n1 (stereo partly drawn) [Example 776, 5-(3-(((S)-1-(1H-tetrazol-1-yl)propan-2-yl)oxy)-4-chlorophenyl)-N-(1-(1-methoxypropan-2-yl)-3-(2,2,2-trifluoroethoxy)-1H-pyrazol-4-yl)pyrimidin-2-amine] yielded an IC50 of under 10 nM.

Same assay, conditions: Table 2; activity class for CaMKIIδ
Work on COc1ccc(N2CC(CN3CCOCC3)C2)cc1Nc1ncc(-c2ccc(Cl)c(O[C@@H](C)Cn3cnnn3)c2)cn1 [Example 656, (S)-5-(3-((1-(1H-tetrazol-1-yl)propan-2-yl)oxy)-4-chlorophenyl)-N-(2-methoxy-5-(3-(morpholinomethyl)azetidin-1-yl)phenyl)pyrimidin-2-amine] yielded an IC50 of under 10 nM. For Cc1ncc(N2CC(N3CCOCC3)C2)cc1Nc1ncc(-c2ccc(Cl)c(O[C@@H](C)Cn3cnnn3)c2)cn1 [Example 605, (S)-5-(3-((1-(1H-tetrazol-1-yl)propan-2-yl)oxy)-4-chlorophenyl)-N-(2-methyl-5-(3-morpholinoazetidin-1-yl)pyridin-3-yl)pyrimidin-2-amine], the IC50 was 10 to 100 nM. COc1cc(N2CCN(CC3COC3)CC2)ncc1Nc1ncc(-c2ccc(Cl)c(O[C@@H](C)Cn3cnnn3)c2)cn1 [Example 652, (S)-5-(3-((1-(1H-tetrazol-1-yl)propan-2-yl)oxy)-4-chlorophenyl)-N-(4-methoxy-6-(4-(oxetan-3-ylmethyl)piperazin-1-yl)pyridin-3-yl)pyrimidin-2-amine] gave an IC50 of 10 to 100 nM. C[C@@H](Cn1cnnn1)Oc1cc(-c2cnc(Nc3cn(C4CCC(=O)CC4)nc3C(F)(F)F)nc2)ccc1Cl [Example 680, (S)-4-(4-((5-(3-((1-(1H-tetrazol-1-yl)propan-2-yl)oxy)-4-chlorophenyl)pyrimidin-2-yl)amino)-3-(trifluoromethyl)-1H-pyrazol-1-yl)cyclohexan-1-one] was tested, and the IC50 was 10 to 100 nM. For COc1nn(C2CCN(C3COC3)CC2)cc1Nc1ncc(-c2ccc(Cl)c(O[C@@H](C)Cn3cnnn3)c2)cn1 [Example 661, (S)-5-(3-((1-(1H-tetrazol-1-yl)propan-2-yl)oxy)-4-chlorophenyl)-N-(3-methoxy-1-(1-(oxetan-3-yl)piperidin-4-yl)-1H-pyrazol-4-yl)pyrimidin-2-amine], the IC50 was under 10 nM. C[C@@H](Cn1cnnn1)Oc1cc(-c2cnc(Nc3cn(C4CN(C5COC5)C4)nc3C(F)(F)F)nc2)ccc1Cl [Example 699, (S)-5-(3-((1-(1H-tetrazol-1-yl)propan-2-yl)oxy)-4-chlorophenyl)-N-(1-(1-(oxetan-3-yl)azetidin-3-yl)-3-(trifluoromethyl)-1H-pyrazol-4-yl)pyrimidin-2-amine] was tested, and the IC50 was 10 to 100 nM. COc1cc(N2C[C@@H]3C[C@H]2CN3C2CCOCC2)ccc1Nc1ncc(-c2ccc(Cl)c(O[C@@H](C)Cn3cnnn3)c2)cn1 [Example 653, 5-(3-(((S)-1-(1H-tetrazol-1-yl)propan-2-yl)oxy)-4-chlorophenyl)-N-(2-methoxy-4-((1S,4S)-5-(tetrahydro-2H-pyran-4-yl)-2,5-diazabicyclo[2.2.1]heptan-2-yl)phenyl)pyrimidin-2-amine] showed an IC50 of 10 to 100 nM. CCn1cc(Nc2ncc(-c3ccc(Cl)c(O[C@@H](C)Cn4cnnn4)c3)cn2)c(N2CCC2)n1 [Example 668, (S)-5-(3-((1-(1H-tetrazol-1-yl)propan-2-yl)oxy)-4-chlorophenyl)-N-(3-(azetidin-1-yl)-1-ethyl-1H-pyrazol-4-yl)pyrimidin-2-amine] showed an IC50 of at least 100 nM.
